Measurements as given in patent publication US11447504B2, “Macrocyclic chlorine substituted indole derivatives” (Bayer Aktiengesellschaft, priority 2017, dated 2022).
Where a name gives a salt, the structure may show the parent alone. Read-outs that look alike come from different tables or passages of the source.

Legend:
SUDHL5 [1] = assay: Antiproliferation assay 7, SUDHL5; format: cell-based; conditions: SUDHL5 cells, 72 hours, CellTiter-Glo; read-out: Antiproli SUDHL5 IC50 (median)
Procedure, shortened: (§1)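 Plate cells in treatment and day 0 reference plates; read day 0 plate with CellTiter-Glo after 10 min; incubate treated plates 72 h at 37° C; read them identically.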

MCL-1 [2] = target: T1, MCL-1 (Homo sapiens (Human), UniProt Q07820, K194A/K197A/R201A); assay: Protein-protein interaction assay MCL-1/Noxa BH3 peptide (MCL-1 Assay, TR-FRET); format: binding; conditions: read-out: MCL-1 Assay IC50 (median)
SUDHL5 [3] = system: SUDHL5
SUDHL10 [4] = system: SUDHL10
Method: (§9) Assay 6 Induction of Cytotoxicity Upon Treatment of Cells with Selected Compounds
(§10) Therefore, cytotoxicity assays were run in parallel in SUDHL5 and SUDHL10 cells.
(§11) The different cell lines were plated in culture medium (RPMI 1640 [GIBCO #22400-089]supplemented with 10% Fetal Bovine Serum) at a density of 3,300 cells in 30 μL/well in a sterile, solid black, flat bottom, polystyrene, TC-treated 384-well microplate (Corning #3571) using Multidrop Combi Reagent Dispenser. As a control, medium without cells was also added to the plate. Cells were incubated in a humidified incubator at 37° C. overnight. […] Rim wells were excluded. The cells were incubated for 5 hours in a humidified incubator at 37° C. After this incubation, 30 μL of CellTiter-Glo® Luminescent Cell Viability reagent (Promega, G7573) was added to each well using the Multidrop Combi Reagent Dispenser, followed by 15 minutes incubation on a shaker at room temperature. Finally, luminescence was read at 0.1 ms, with a gain of 3000 using the PHERAstar FS microplate reader (BMG Labtech).

BCL-XL = BCL-XL (Homo sapiens (Human), UniProt Q07817); assay: Protein-protein interaction assay BCL-XL/Bad BH3 peptide (BCL-XL Assay, TR-FRET); format: binding; conditions: read-out: BCL-XL Assay IC50 (median)
Method: Assay 2 Protein-Protein Interaction Assay: BCL-XL/Bad BH3 Peptide (BCL-XL Assay)
The dose-dependent inhibition by the compounds described in this invention of the interaction between BCL-XL and the BH3 domain of Bad (both human) was determined using a steady state binding competition assay with time-resolved fluorescence energy transfer (TR-FRET) readout.
(§2) For that, 100-fold concentrated DMSO solutions were prepared by serial dilutions (1:3.4) of a 2 mM stock solution in a clear, 384-well microtiter plate (Greiner Bio-One, Frickenhausen, Germany). From there, 50 nl were transferred in a dark test plate (Greiner Bio-One, Frickenhausen, Germany). […] This was followed by a 10-minute incubation step at 22° C. for pre-equilibration of the putative complex between His-BCL-XL and the compounds.
The mixture was incubated in the dark for one hour at 22° C. and then overnight at 4° C. The formation of BCL-XL/Bad complexes was determined by measuring the resonance energy transfer of the anti-His- Eu-cryptate antibody to the streptavidin-XL665 present in the reaction.
(§3) The resulting data (ratio) were normalized, taking 0% inhibition as the mean value of control measurements (usually 32 data points) where all reagents were included. In this case 50 nl DMSO were used instead of compounds. […] IC50 values were determined by regression analysis based on a 4 parameter equation (minimum, maximum, IC50, Hill; Y=Max+(Min−Max)/(1+(X/IC50)^Hill) using the Screener Software (Genedata).

SUDHL5 [5] = assay: Induction of caspase-3/7 activity (Assay 4), SUDHL5; format: cell-based; conditions: SUDHL5 cells, 3 hours, Caspase-Glo 3/7; read-out: Caspase SUDHL5 EC50 (median)
Procedure, shortened: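 DLBCL cells treated with compounds for 3 hours at 37° C. Caspase-3/7 activity measured by Caspase-Glo 3/7 luminescence, with medium-only background subtracted.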

HMC-1-8 = assay: Antiproliferation assay 7, HMC-1-8; format: cell-based; conditions: HMC-1-8 cells, 72 hours, CellTiter-Glo; read-out: Antiproli HMC-1-8 IC50 median
Procedure, shortened: as §1

SUDHL10 [6] = assay: Induction of caspase-3/7 activity (Assay 4), SUDHL10; format: cell-based; conditions: SUDHL10 cells, 3 hours, Caspase-Glo 3/7; read-out: Caspase SUDHL10 EC50 (median)
Procedure, shortened: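 Luminescent Caspase-Glo 3/7 read-out after a 3 h, 37 °C compound exposure of the DLBCL line SUDHL10. Values are background-corrected using medium-only wells.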

AMO-1 = assay: Antiproliferation assay 7, AMO-1; format: cell-based; conditions: AMO-1 cells, 72 hours, CellTiter-Glo; read-out: Antiproli AMO-1 IC50 median
Procedure, shortened: as §1

BCL-2 = BCL-2 (Homo sapiens (Human), UniProt P10415); assay: Protein-protein interaction assay BCL-2/Bad BH3 peptide (BCL-2 Assay, TR-FRET); format: binding; conditions: read-out: BCL-2 Assay IC50 (median)
Method: The dose-dependent inhibition by the compounds described in this invention of the interaction between BCL-2 and the BH3 domain of Bad (both human) was determined using a steady state binding competition assay with time-resolved fluorescence energy transfer (TR-FRET) readout.
as §2, with “His-BCL-2” for “His-BCL-XL”
The mixture was incubated in the dark for one hour at 22° C. and then overnight at 4° C.
as §3

SUDHL10 [7] = assay: Antiproliferation assay 7, SUDHL10; format: cell-based; conditions: SUDHL10 cells, 72 hours, CellTiter-Glo; read-out: Antiproli SUDHL10 IC50 (median)
Procedure, shortened: as §1

MV-4-11 = assay: Antiproliferation assay 7, MV-4-11; format: cell-based; conditions: MV-4-11 cells, 72 hours, CellTiter-Glo; read-out: Antiproli MV-4-11 IC50 median
Procedure, shortened: as §1

SK-BR-3 = assay: Antiproliferation assay 7, SK-BR-3; format: cell-based; conditions: SK-BR-3 cells, 72 hours, CellTiter-Glo; read-out: Antiproli SK-BR-3 IC50 median
Method: (§4) Assessment of the Anti-Proliferative Effect of Compounds in Different Cell Lines
(§5) The impact of compounds on the proliferation of different cell lines was assessed using the CellTiter-Glo® Luminescent Cell Viability reagent from Promega (G7573).
(§6) In parallel, cells were plated in a reference (day 0) plate for time zero determination.
(§7) Rim wells were excluded. The cells were incubated for 72 hours in a humidified incubator at 37° C. The day 0 plate was measured by adding 30 μL/well of CTG solution (CellTiter-Glo® Luminescent Cell Viability reagent, Promega G7573) to time zero wells in the reference plate followed by a 10 minutes incubation and luminescence reading at 0.1 ms. using the PHERAstar FS microplate reader (BMG Labtech).
(§8) After 72 hours incubation, the treated plates were measured in the same way as the day 0 plate mentioned above.

SUDHL5 [8] = assay: Induction of cytotoxicity (Assay 6), SUDHL5; conditions: read-out: Cytotox SUDHL5 IC50 (median); SUDHL5 cells, 5 hours, CellTiter-Glo
SUDHL10 [9] = assay: Induction of cytotoxicity (Assay 6), SUDHL10; conditions: read-out: Cytotox SUDHL10 IC50 (median); SUDHL10 cells, 5 hours, CellTiter-Glo
Method: as §9, §10, §11

MCL-1 [10] = target: T1, MCL-1; assay: Protein-compound interaction assay (SPR assay 8); format: binding; conditions: immobilized MBP-MCL-1, 25° C.
Source text: Assay 8 Protein-Compound Interaction Assay (SPR Assay)
The ability of the compounds described in this invention to bind to MCL-1 may be determined using surface plasmon resonance (SPR). This allows for the quantification of binding in terms of the equilibrium dissociation constant (KD [M]), as well as association and dissociation rate constants (kon [1/M 1/s] and koff [1/s], respectively). The measurements may be performed using Biacore® T200 or Biacore® S200 instruments (GE Healthcare).
MBP-MCL-1 was diluted in 1×PBS-P+ (GE Healthcare) and injected on the activated chip surface. Subsequently, a solution of 1 M ethanolamine-HCl (GE Healthcare) was injected to block unreacted groups, resulting in approximately 400-2500 response units (RU) of immobilized protein. A reference surface was generated by treatment with NHS-EDC and ethanolamine-HCl.
The double-referenced sensorgrams were fit to a simple reversible Langmuir 1:1 reaction mechanism as implemented in the Biacore® T200 and S200 evaluation software (T200 evaluation software version 2.0 and S200 evaluation software version 1.0, GE Healthcare).

NCI-H23 = assay: Antiproliferation assay 7, NCI-H23; format: cell-based; conditions: NCI-H23 cells, 72 hours, CellTiter-Glo; read-out: Antiproli NCI-H23 IC50 median
Method: as §4, §5, §6, §7, §8

A2058 = assay: Antiproliferation assay 7, A2058; format: cell-based; conditions: A2058 cells, 72 hours, CellTiter-Glo; read-out: Antiproli A2058 IC50 median
Method: as §4, §5, §6, §7, §8

T1 sequence (Q07820 whole entry K194A/K197A/R201A, looked up): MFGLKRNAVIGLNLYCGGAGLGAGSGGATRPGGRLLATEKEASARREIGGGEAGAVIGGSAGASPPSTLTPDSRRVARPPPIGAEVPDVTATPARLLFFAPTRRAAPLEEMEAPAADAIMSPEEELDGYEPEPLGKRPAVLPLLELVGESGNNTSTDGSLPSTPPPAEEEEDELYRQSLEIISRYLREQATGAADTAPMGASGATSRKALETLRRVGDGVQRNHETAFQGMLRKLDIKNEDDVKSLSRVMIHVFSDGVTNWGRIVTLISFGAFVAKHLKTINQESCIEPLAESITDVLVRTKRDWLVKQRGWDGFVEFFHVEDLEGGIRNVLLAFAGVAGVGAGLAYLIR
Chain of BCL-XL (Q07817 other isoform, or with tags, fused parts or gaps): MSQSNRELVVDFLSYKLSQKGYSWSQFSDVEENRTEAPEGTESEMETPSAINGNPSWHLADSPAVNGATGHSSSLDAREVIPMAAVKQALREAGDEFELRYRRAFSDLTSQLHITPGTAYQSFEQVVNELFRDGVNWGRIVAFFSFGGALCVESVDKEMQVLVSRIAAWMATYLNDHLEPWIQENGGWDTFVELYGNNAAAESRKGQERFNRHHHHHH
Chain of BCL-2 (P10415 other isoform, or with tags, fused parts or gaps): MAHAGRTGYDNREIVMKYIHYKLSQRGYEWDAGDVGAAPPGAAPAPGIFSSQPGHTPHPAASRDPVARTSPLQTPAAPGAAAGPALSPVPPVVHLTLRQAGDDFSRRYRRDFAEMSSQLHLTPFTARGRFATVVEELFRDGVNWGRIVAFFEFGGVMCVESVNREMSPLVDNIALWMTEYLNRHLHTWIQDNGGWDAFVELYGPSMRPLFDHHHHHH

Molecule	IC50 (SUDHL5 [1]) [nM]	IC50 (MCL-1 [2]) [nM]	IC50 (SUDHL5 [3]) [nM]	IC50 (SUDHL10 [4]) [nM]	IC50 (BCL-XL) [nM]	EC50 (SUDHL5 [5]) [nM]	IC50 (HMC-1-8) [nM]	EC50 (SUDHL10 [6]) [nM]	IC50 (AMO-1) [nM]	IC50 (BCL-2) [nM]	IC50 (SUDHL10 [7]) [nM]	IC50 (MV-4-11) [nM]	IC50 (SK-BR-3) [nM]	IC50 (SUDHL5 [8]) [nM]	IC50 (SUDHL10 [9]) [nM]	koff (geo mean) (MCL-1 [10]) [s⁻¹]	kon (geo mean) (MCL-1 [10])	Kd (MCL-1 [10]; read-out: KD (geo mean)) [nM]	IC50 (NCI-H23) [nM]	IC50 (A2058) [nM]
(rac)-4-chloro-12,12-difluoro-2,3-dimethyl-7-{3-[(naphthalen-1-yl)oxy]propyl}-2,10,11,12,13,15-hexahydropyrazolo[4′,3′:9,10][1,6]oxazacycloundecino[8,7,6-hi]indole-8-carboxylic Acid [Example 55]	620	2.3	840	2000	> 20000	510	5750	1500	1710	18800										
(rac)-4-chloro-14-(2,2-difluoroethyl)-3-ethyl-7-{3-[(6-fluoronaphthalen-1-yl)oxy]propyl}-2-methyl-10,11,12,13,14,15-hexahydro-2H-pyrazolo[3′,4′:8,9][1,6]diazacycloundecino[10,11,1-hi]indole-8-carboxylic Acid [Example 62]		2.7	330			270														
Cc1nn(C)c2c1-c1cccc3c(CCCOc4cccc5ccccc45)c(C(=O)O)n(c13)CCCCN2Cc1ccccc1 [Example 69, (rac)-8-benzyl-9,11-dimethyl-1-[3-(1-naphthyloxy)propyl]-4,5,6,7,8,9-hexahydropyrazolo[4′,3′:4,5][1,6]diazecino[3,2,1-hi]indole-2-carboxylic Acid]	14000	350	21000	32000		> 33000		22000			6300									
(rac)-4-chloro-3-ethyl-1-[2-(morpholin-4-yl)ethyl]-7-[3-(naphthalen-1-yloxy)propyl]-1,10,11,12,13,15-hexahydropyrazolo[4′,3′:9,10][1,6]oxazacycloundecino[8,7,6-hi]indole-8-carboxylic Acid [Example 8]	470	0.89	350	450		290		360	1180			1100	3000							
Cc1nn(C)c2c1-c1cccc3c(CCCOc4cccc5ccccc45)c(C(=O)O)n(c13)CCCCN2 [Example 70, (rac)-9,11-dimethyl-1-[3-(1-naphthyloxy)propyl]-4,5,6,7,8,9-hexahydropyrazolo[4′,3′:4,5][1,6]diazecino[3,2,1-hi]indole-2-carboxylic Acid]	> 33000	43	> 33000	> 33000		> 33000		29000			15000									
4-chloro-3-ethyl-1-[2-(morpholin-4-yl)ethyl]-7-[3-(naphthalen-1-yloxy)propyl]-1,10,11,12,13,15-hexahydropyrazolo[4′,3′:9,10][1,6]oxazacycloundecino[8,7,6-hi]indole-8-carboxylic acid-N-ethylethanamine Salt (Enantiomer 1) [Example 9]	370	0.47			> 20000	270		330	874	> 20000	270	823	1080	290	340	0.0096	8.7E6 1/M 1/s	1.1		
Cc1c2c(nn1C)COCCCCn1c(C(=O)O)c(CCCOc3cccc4ccccc34)c3ccc(Cl)c-2c31 (single isomer, unassigned; enantiomer 1) [Example 26, 4-chloro-2,3-dimethyl-7-[3-(naphthalen-1-yloxy)propyl]-2,10,11,12,13,15-hexahydropyrazolo-[4′,3′:9,10][1,6]oxazacycloundecino[8,7,6-hi]indole-8-carboxylic acid-N-ethylethanamine Salt (Enantiomer 1)]	580					350	2890	410	996			1810	3300	460	500				2320	14900
